The record followed here is US20220341922A1, “FLUORESCENT PROBE FOR USE IN DETECTION OF BRAIN TUMOR” (The University of Tokyo, priority 2019, published 2022).

For test [1], the target named is T1, cathepsin D (Homo sapiens, UniProt P07339). Description: Change in fluorescence intensity of candidate enzymes using inhibitors. Particulars: candidate enzyme cathepsin D. In kind it is biochemical.
Test [2] deals with T2, calpain 1 (Homo sapiens, UniProt P07384).
T2 sequence (P07384 1-714): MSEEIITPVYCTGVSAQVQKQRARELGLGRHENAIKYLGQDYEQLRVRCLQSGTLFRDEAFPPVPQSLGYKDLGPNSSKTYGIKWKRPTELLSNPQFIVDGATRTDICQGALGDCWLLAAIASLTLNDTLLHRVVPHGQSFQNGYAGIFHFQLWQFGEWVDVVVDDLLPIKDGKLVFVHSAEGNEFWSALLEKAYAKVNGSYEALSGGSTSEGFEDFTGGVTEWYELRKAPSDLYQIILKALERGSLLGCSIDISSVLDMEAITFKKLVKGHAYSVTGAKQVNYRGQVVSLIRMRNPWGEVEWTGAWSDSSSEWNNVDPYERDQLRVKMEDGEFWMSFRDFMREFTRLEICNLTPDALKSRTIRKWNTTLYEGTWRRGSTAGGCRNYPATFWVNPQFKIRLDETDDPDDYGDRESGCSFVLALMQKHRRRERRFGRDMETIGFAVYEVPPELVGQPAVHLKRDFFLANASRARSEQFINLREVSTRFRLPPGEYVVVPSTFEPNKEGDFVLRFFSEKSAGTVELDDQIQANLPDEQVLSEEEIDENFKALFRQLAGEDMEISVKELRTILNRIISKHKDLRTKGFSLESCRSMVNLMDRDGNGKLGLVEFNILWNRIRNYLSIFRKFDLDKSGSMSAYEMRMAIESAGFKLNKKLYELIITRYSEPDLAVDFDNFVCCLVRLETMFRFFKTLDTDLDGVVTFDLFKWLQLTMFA
T2 sequence (P04632 1-268 partner): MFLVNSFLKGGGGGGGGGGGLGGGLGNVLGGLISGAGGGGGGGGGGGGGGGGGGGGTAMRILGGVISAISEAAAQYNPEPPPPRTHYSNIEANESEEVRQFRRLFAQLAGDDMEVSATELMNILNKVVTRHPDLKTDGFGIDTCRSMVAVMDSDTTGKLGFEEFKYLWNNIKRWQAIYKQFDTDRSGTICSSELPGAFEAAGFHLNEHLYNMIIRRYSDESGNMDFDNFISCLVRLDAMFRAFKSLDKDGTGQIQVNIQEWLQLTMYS
The test is described as above. Particulars: candidate enzyme calpain 1. In kind it is biochemical.

In test [3] the test system is fresh glioblastoma and peritumoral tissue. Nature of the test: Screening by fluorescent probe on fresh glioblastoma and peritumoral tissue specimens. Particulars: for tumor-specific fluorescent labeling as compared with the surrounding tissue: 50 μM probe solution in PBS, 0.5% v/v DMSO, Ex 465 nm, Em 515 nm, FIGS. 1 and 2; for fluorescence intensity in the tumor: 50 μM probe solution. As to the method:
The fluorescent intensity of fresh glioblastoma and peritumoral tissue were compared using the fluorescent probes YK190, YK213, YK19, and YK281 synthesized in Example 1. As a comparative example, hydroxymethyl rhodamine green (HRMG) having no dipeptide site was used.
50 μM probe solutions (200 μL) in PBS, containing 0.5% v/v DMSO as a co-solvent was added dropwise to each specimen, and the fluorescence intensity was measured over time using Maestro In Vivo Imaging System Ex. • Excitation wavelength: 465 nm • Emission wavelength: 515 nm

Test [4] has as its target T1, cathepsin D. Description: Reaction of fluorescent probe with purified enzyme. The class given is biochemical. Particulars: FIG. 4.
Test [5] deals with T2, calpain 1. Nature of the test: Reaction of fluorescent probe with purified enzyme. Particulars: purified calpain 1; FIG. 4. In kind it is biochemical.
The test system of test [6] is calpain 1 knocked down in U87 glioblastoma cell line. Nature of the test: Verification by siRNA knock-down using U87 cell line. Particulars: calpain 1 knocked down by siRNA, 48 hours culture; FIG. 5. In kind it is cell-based. As to the method: (§1) Calpain 1 and cathepsin D were knocked down by siRNA in a cell line, and a reaction with the fluorescent probe YK190 was observed. The experiment was conducted in accordance with the procedure shown below.
(§2) Transfection of U87, a glioblastoma cell line, was done with siRNA utilizing lipofectamine. A reaction with a fluorescent probe was observed after culture for 48 hours.

Test [7] has as its system cathepsin D knocked down in U87 glioblastoma cell line. The description is as above. The class given is cell-based. Particulars: 48 hours culture, FIG. 5. As to the method:
as §1, §2

T1 sequence (P07339 65-412, species assumed): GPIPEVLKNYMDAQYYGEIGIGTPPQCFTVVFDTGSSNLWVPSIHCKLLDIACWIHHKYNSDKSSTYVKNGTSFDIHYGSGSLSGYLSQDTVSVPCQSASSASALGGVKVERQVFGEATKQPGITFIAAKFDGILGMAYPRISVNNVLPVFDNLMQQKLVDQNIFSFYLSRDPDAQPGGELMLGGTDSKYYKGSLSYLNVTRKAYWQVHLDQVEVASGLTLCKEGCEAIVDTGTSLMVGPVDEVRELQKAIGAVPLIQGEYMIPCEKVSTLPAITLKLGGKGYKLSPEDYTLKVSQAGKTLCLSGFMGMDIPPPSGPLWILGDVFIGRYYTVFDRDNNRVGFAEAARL

Consider `COCCOCCOC(=O)N[C@@H](CC(C)C)C(=O)N[C@@H](Cc1ccccc1)C(=O)C(=O)NC1CC1` [SNJ-1945], for which the “change in fluorescence intensity with inhibitor” value in test [1] and in test [2] was “fluorescence suppression” throughout.

`N[C@@H](Cc1ccc(O)cc1)C(=O)O` [YK19, Tyrosine]: the “tumor-specific fluorescent labeling as compared with the surrounding tissue” value in test [3] was “a fluorescent response was also well-obtained in a tumor-specific manner”.

`N=C(N)NCCC[C@H](N)C(=O)O` [YK190, Arginine]: the “change in fluorescence intensity by reaction with the probe” value in test [4] and in test [5] was “significant increase in fluorescence intensity” throughout. In test [3], the “tumor-specific fluorescent labeling as compared with the surrounding tissue” value was “fluorescent labeling was performed in a tumor-specific manner”. Also, the “fluorescence intensity in the tumor” value in test [3] (FIG. 2) is listed as “high fluorescence intensity”. Moreover, in test [3] (in the tumor, FIG. 2), the “fluorescence intensity relative to YK213” value is “about two times that of YK213”. For the same compound, the “fluorescence intensity compared to the control U87 cell line” value in test [6] and in test [7] was “reduced fluorescence intensity” in each case.

For `N[C@@H](Cc1c[nH]cn1)C(=O)O` [YK213, Histidine], the “tumor-specific fluorescent labeling as compared with the surrounding tissue” value in test [3] is listed as “fluorescent labeling was performed in a tumor-specific manner”. The “fluorescence intensity in the tumor” value in test [3] (FIG. 2) is on record as “high fluorescence intensity”.
